The structures appear in SMILES notation.

For orientation: melting point means the temperature, or range, at which the solid turns liquid. In turn, `CS(=O)(=O)c1cccc(-c2cccc(-c3nc(-c4ccc(C(F)(F)F)cc4)cc(C(F)(F)F)n3)c2)c1` [Example 219, 2-(3′-Methanesulfonyl-biphenyl-3-yl)-4-trifluoromethyl-6-(4-trifluoromethyl-phenyl)-pyrimidine] gave a melting point of 183.5 °C.

`Nc1cccc(-c2cccc(-c3nc(-c4ccc(C(F)(F)F)cc4)cc(C(F)(F)F)n3)c2)c1` [Example 220, 3′-[4-Trifluoromethyl-6-(4-trifluoromethyl-phenyl)-pyrimidin-2-yl]-biphenyl-3-ylamine]: the melting point was determined as 156.5 °C.

On to `Cc1cc(-c2ccc(Cl)c(C)c2)nc(-n2cnc(-c3cccc(S(N)(=O)=O)c3)c2)n1` [Example 224, 3-{1-[4-(4-Chloro-3-methyl-phenyl)-6-methyl-pyrimidin-2-yl]-1H-imidazol-4-yl}-benzenesulfonamide], for which the melting point was 219 °C (dec.).

For the compound `Cc1cc(-c2ccc(Cl)c(C)c2)nc(-n2cnc(-c3ccc(S(N)(=O)=O)s3)c2)n1` [Example 225, 5-{1-[4-(4-Chloro-3-methyl-phenyl)-6-methyl-pyrimidin-2-yl]-1H-imidazol-4-yl}-thiophene-2-sulfonic acid amide], the melting point is 267 °C (dec.).

`Cc1cc(-c2ccc(Cl)c(C)c2)nc(-n2cnc(-c3ccc(N)nc3)c2)n1` [Example 226, 5-{1-[4-(4-Chloro-3-methyl-phenyl)-6-methyl-pyrimidin-2-yl]-1H-imidazol-4-yl}-pyridin-2-ylamine]: the melting point was 202 °C (dec.).

As to `Cc1cc(-c2ccc(Cl)cc2)cc(-c2cccc(-c3ccc(N)nc3)c2)n1` [Example 229, 5-{3-[4-(4-Chloro-phenyl)-6-methyl-pyridin-2-yl]-phenyl}-pyridin-2-ylamine], the melting point lay within 76 to 95 °C.

For the compound `Cc1cc(-c2ccc(C(F)(F)F)cc2)cc(-c2nc(-c3ccc(N)nc3)cs2)n1` [Example 230, 5-{2-[6-Methyl-4-(4-trifluoromethyl-phenyl)-pyridin-2-yl]-thiazol-4-yl}-pyridin-2-ylamine], the melting point is 191 °C.

In the case of `Cc1cc(-c2ccc(C(F)(F)F)cc2)cc(-c2nc(-c3cnc(N)nc3)cs2)n1` [Example 231, 5-{2-[6-Methyl-4-(4-trifluoromethyl-phenyl)-pyridin-2-yl]-thiazol-4-yl}-pyrimidin-2-ylamine], the melting point is greater than 250 °C.

`Nc1ccc(-c2cccc(-c3cc(-c4ccc(C(F)(F)F)cc4)cc(C(F)(F)F)n3)c2)cn1` [Example 232, 5-{3-[6-Trifluoromethyl-4-(4-trifluoromethyl-phenyl)-pyridin-2-yl]-phenyl}-pyridin-2-ylamine]: the melting point is 166 °C.

Turning to `Nc1ncc(-c2cccc(-c3cc(-c4ccc(C(F)(F)F)cc4)cc(C(F)(F)F)n3)c2)cn1` [Example 233, 5-{3-[6-Trifluoromethyl-4-(4-trifluoromethyl-phenyl)-pyridin-2-yl]-phenyl}-pyrimidin-2-ylamine], the melting point turned out to be 260 °C.

In the case of `Nc1ncc(-c2cccc(-c3cc(-c4ccc(Cl)cc4)cc(C(F)(F)F)n3)c2)cn1` [Example 234, 5-{3-[4-(4-Chloro-phenyl)-6-trifluoromethyl-pyridin-2-yl]-phenyl}-pyrimidin-2-ylamine], the melting point was found to be 239 °C.

`Nc1ccc(-c2cccc(-c3cc(-c4ccc(Cl)cc4)cc(C(F)(F)F)n3)c2)cn1` [Example 235, 5-{3-[4-(4-Chloro-phenyl)-6-trifluoromethyl-pyridin-2-yl]-phenyl}-pyridin-2-ylamine] came in with a melting point of 172 °C.

`Cc1cc(-c2ccc(C(F)(F)F)cc2)cc(-c2nc(-c3ccc(N)nc3)no2)n1` [Example 236, 5-{5-[6-Methyl-4-(4-trifluoromethyl-phenyl)-pyridin-2-yl]-[1,2,4]oxadiazol-3-yl}-pyridin-2-ylamine] had a melting point of 163 °C.

Values taken from patent US8183262B2, “Pyridine derivatives as mGluR2 antagonists” (Hoffmann-La Roche Inc., priority 2007, dated 2012).
